# According to paper PMC4890880 (ACS infectious diseases, 2016):
# pIC50: −log10 of the molar value. Like-named read-outs stand apart in the source and are kept apart here.
# Key:
# HepG2-A16-CD81EGFP cells = settings: sheet 2nd round; for pIC50: read-out: Tox_IC50, HepG2 cytotoxicity; for Tox_max_inhibition (%): maximal inhibition in dose response
# [1] = system: Plasmodium berghei (Pb-Luc) exoerythrocytic-stage parasites; settings: for normalized signal at concentration 0.000508053 / normalized signal at concentration 0.00152416 / normalized signal at concentration 0.00457247 / normalized signal at concentration 0.0137174 / normalized signal at concentration 0.0411523 / normalized signal at concentration 0.123457 / normalized signal at concentration 0.37037 / normalized signal at concentration 1.11111 / normalized signal at concentration 3.33333 / normalized signal at concentration 10: fraction of control; for pIC50: read-out: PbLuc_IC50; for pIC50 / PbLuc_max_inhibition (%): sheet 2nd round; for PbLuc_max_inhibition (%): maximal inhibition in dose response
# [2] = second series of columns (replicate)
# [3] = first series of dose-response columns
# [4] = second series of dose-response columns
compound,measurement,setting,value
CC(C)NC(=O)NCC[C@@H]1CC[C@H](NS(=O)(=O)c2ccc(Oc3ccccc3)cc2)[C@@H](CO)O1 [BRD-K66184091-001-01-6],pIC50,HepG2-A16-CD81EGFP cells,< 5.00
same,Tox_max_inhibition (%),HepG2-A16-CD81EGFP cells,7%
same,normalized signal at concentration 0.000508053,[1]; first series of columns,0.909
same,normalized signal at concentration 0.00152416,[1]; first series of columns,1.056
same,normalized signal at concentration 0.00457247,[1]; first series of columns,1.03
same,normalized signal at concentration 0.0137174,[1]; first series of columns,0.8503
same,normalized signal at concentration 0.0411523,[1]; first series of columns,0.8577
same,normalized signal at concentration 0.123457,[1]; first series of columns,0.9757
same,normalized signal at concentration 0.37037,[1]; first series of columns,0.9475
same,normalized signal at concentration 1.11111,[1]; first series of columns,1.003
same,normalized signal at concentration 3.33333,[1]; first series of columns,1.282
same,normalized signal at concentration 10,[1]; first series of columns,1.243
same,pIC50,"[1]; Pb-Luc exoerythrocytic stage, 10-point dose response, top concentration 10",< 5.00
same,normalized signal at concentration 0.000508053,[1]; [2],0.9487
same,normalized signal at concentration 0.00152416,[1]; [2],0.9281
same,normalized signal at concentration 0.00457247,[1]; [2],0.7932
same,normalized signal at concentration 0.0137174,[1]; [2],0.7902
same,normalized signal at concentration 0.0411523,[1]; [2],0.9772
same,normalized signal at concentration 0.123457,[1]; [2],0.9341
same,normalized signal at concentration 0.37037,[1]; [2],0.8543
same,normalized signal at concentration 1.11111,[1]; [2],0.8244
same,normalized signal at concentration 3.33333,[1]; [2],0.9837
same,normalized signal at concentration 10,[1]; [2],0.9187
same,PbLuc_max_inhibition (%),[1],21%
C[C@H]1CCCCO[C@H](CN(C)S(=O)(=O)c2ccc(F)cc2)[C@@H](C)CN([C@@H](C)CO)C(=O)c2cc(N(C)C)ccc2O1 [BRD-K38571893-001-01-9],pIC50,HepG2-A16-CD81EGFP cells,< 5.00
same,Tox_max_inhibition (%),HepG2-A16-CD81EGFP cells,-2.16%
same,normalized signal at concentration 10,[1]; [3],0.89
same,normalized signal at concentration 0.000508053,[1]; first series,0.97
same,normalized signal at concentration 0.00152416,[1]; first series,0.98
same,normalized signal at concentration 0.00457247,[1]; first series,0.90
same,normalized signal at concentration 0.0137174,[1]; first series,0.78
same,normalized signal at concentration 0.0411523,[1]; first series,1.07
same,normalized signal at concentration 0.123457,[1]; first series,1.18
same,normalized signal at concentration 0.37037,[1]; first series,0.95
same,normalized signal at concentration 1.11111,[1]; first series,0.97
same,normalized signal at concentration 3.33333,[1]; first series,0.87
same,pIC50,"[1]; Broad compounds, dose response",< 5.00
same,normalized signal at concentration 10,[1]; [4],0.80
same,normalized signal at concentration 0.000508053,[1]; second series,1.11
same,normalized signal at concentration 0.00152416,[1]; second series,0.83
same,normalized signal at concentration 0.00457247,[1]; second series,0.98
same,normalized signal at concentration 0.0137174,[1]; second series,1.18
same,normalized signal at concentration 0.0411523,[1]; second series,1.02
same,normalized signal at concentration 0.123457,[1]; second series,1.25
same,normalized signal at concentration 0.37037,[1]; second series,0.98
same,normalized signal at concentration 1.11111,[1]; second series,1.04
same,normalized signal at concentration 3.33333,[1]; second series,0.97
same,PbLuc_max_inhibition (%),[1],22%
C[C@@H]1CN([C@@H](C)CO)C(=O)c2cccc(NC(=O)c3ccc(-c4nccs4)cc3)c2O[C@H]1CN(C)C(=O)Nc1ccc(C(F)(F)F)cc1 [BRD-K97485207-001-01-1],pIC50,HepG2-A16-CD81EGFP cells,< 5.00
same,Tox_max_inhibition (%),HepG2-A16-CD81EGFP cells,6.47%
same,normalized signal at concentration 10,[1]; [3],0.53
same,normalized signal at concentration 0.000508053,[1]; first series,0.80
same,normalized signal at concentration 0.00152416,[1]; first series,0.94
same,normalized signal at concentration 0.00457247,[1]; first series,0.89
same,normalized signal at concentration 0.0137174,[1]; first series,0.64
same,normalized signal at concentration 0.0411523,[1]; first series,0.84
same,normalized signal at concentration 0.123457,[1]; first series,1.04
same,normalized signal at concentration 0.37037,[1]; first series,0.85
same,normalized signal at concentration 1.11111,[1]; first series,0.73
same,normalized signal at concentration 3.33333,[1]; first series,0.73
same,pIC50,"[1]; Broad compounds, dose response",< 5.00
same,normalized signal at concentration 10,[1]; [4],0.66
same,normalized signal at concentration 0.000508053,[1]; second series,0.85
same,normalized signal at concentration 0.00152416,[1]; second series,0.90
same,normalized signal at concentration 0.00457247,[1]; second series,0.80
same,normalized signal at concentration 0.0137174,[1]; second series,0.89
same,normalized signal at concentration 0.0411523,[1]; second series,0.77
same,normalized signal at concentration 0.123457,[1]; second series,0.77
same,normalized signal at concentration 0.37037,[1]; second series,0.95
same,normalized signal at concentration 1.11111,[1]; second series,0.95
same,normalized signal at concentration 3.33333,[1]; second series,0.97
same,PbLuc_max_inhibition (%),[1],47%
C/C=C/c1ccc([C@H]2[C@@H](CO)N(CC3CCCCC3)[C@H]2CNC(C)C)cc1 [BRD-K63968422-001-01-5],pIC50,HepG2-A16-CD81EGFP cells,< 5.00
same,Tox_max_inhibition (%),HepG2-A16-CD81EGFP cells,9%
same,normalized signal at concentration 10,[1]; [3],0.94
same,normalized signal at concentration 0.000508053,[1]; first series,1.00
same,normalized signal at concentration 0.00152416,[1]; first series,1.12
same,normalized signal at concentration 0.00457247,[1]; first series,0.90
same,normalized signal at concentration 0.0137174,[1]; first series,1.14
same,normalized signal at concentration 0.0411523,[1]; first series,1.01
same,normalized signal at concentration 0.123457,[1]; first series,0.97
same,normalized signal at concentration 0.37037,[1]; first series,0.96
same,normalized signal at concentration 1.11111,[1]; first series,0.99
same,normalized signal at concentration 3.33333,[1]; first series,1.01
same,pIC50,"[1]; Broad compounds, dose response",< 5.00
same,normalized signal at concentration 10,[1]; [4],0.85
same,normalized signal at concentration 0.000508053,[1]; second series,0.78
same,normalized signal at concentration 0.00152416,[1]; second series,1.01
same,normalized signal at concentration 0.00457247,[1]; second series,1.16
same,normalized signal at concentration 0.0137174,[1]; second series,1.05
same,normalized signal at concentration 0.0411523,[1]; second series,1.10
same,normalized signal at concentration 0.123457,[1]; second series,1.05
same,normalized signal at concentration 0.37037,[1]; second series,1.24
same,normalized signal at concentration 1.11111,[1]; second series,1.02
same,normalized signal at concentration 3.33333,[1]; second series,1.10
same,PbLuc_max_inhibition (%),[1],22%
COc1cccc(CN2[C@H](CO)[C@@H](c3ccccc3)C23CN(Cc2ccccc2OC)C3)c1 [BRD-K58149752-001-01-9],pIC50,HepG2-A16-CD81EGFP cells,< 5.00
same,Tox_max_inhibition (%),HepG2-A16-CD81EGFP cells,12%
same,normalized signal at concentration 10,[1]; [3],0.43
same,normalized signal at concentration 0.000508053,[1]; first series,0.95
same,normalized signal at concentration 0.00152416,[1]; first series,0.91
same,normalized signal at concentration 0.00457247,[1]; first series,0.80
same,normalized signal at concentration 0.0137174,[1]; first series,0.89
same,normalized signal at concentration 0.0411523,[1]; first series,0.73
same,normalized signal at concentration 0.123457,[1]; first series,1.00
same,normalized signal at concentration 0.37037,[1]; first series,0.78
same,normalized signal at concentration 1.11111,[1]; first series,1.22
same,normalized signal at concentration 3.33333,[1]; first series,1.08
same,pIC50,"[1]; Broad compounds, dose response",< 5.00
same,normalized signal at concentration 10,[1]; [4],0.60
same,normalized signal at concentration 0.000508053,[1]; second series,0.82
same,normalized signal at concentration 0.00152416,[1]; second series,0.84
same,normalized signal at concentration 0.00457247,[1]; second series,0.88
same,normalized signal at concentration 0.0137174,[1]; second series,0.90
same,normalized signal at concentration 0.0411523,[1]; second series,1.01
same,normalized signal at concentration 0.123457,[1]; second series,0.92
same,normalized signal at concentration 0.37037,[1]; second series,0.85
same,normalized signal at concentration 1.11111,[1]; second series,0.92
same,normalized signal at concentration 3.33333,[1]; second series,0.98
same,PbLuc_max_inhibition (%),[1],57%
Cc1cccc(-c2ccc(C3[C@@H]4CN(C(=O)CN(C)C)C[C@H]3N4)cc2)c1 (stereo partly drawn) [BRD-K25161260-019-01-1],pIC50,HepG2-A16-CD81EGFP cells,< 5.00
same,Tox_max_inhibition (%),HepG2-A16-CD81EGFP cells,5.5%
same,normalized signal at concentration 10,[1]; [3],0.87
same,normalized signal at concentration 0.000508053,[1]; first series,0.66
same,normalized signal at concentration 0.00152416,[1]; first series,0.79
same,normalized signal at concentration 0.00457247,[1]; first series,0.92
same,normalized signal at concentration 0.0137174,[1]; first series,0.97
same,normalized signal at concentration 0.0411523,[1]; first series,0.91
same,normalized signal at concentration 0.123457,[1]; first series,0.95
same,normalized signal at concentration 0.37037,[1]; first series,0.78
same,normalized signal at concentration 1.11111,[1]; first series,0.60
same,normalized signal at concentration 3.33333,[1]; first series,0.90
same,pIC50,"[1]; Broad compounds, dose response",< 5.00
same,normalized signal at concentration 10,[1]; [4],0.87
same,normalized signal at concentration 0.000508053,[1]; second series,0.94
same,normalized signal at concentration 0.00152416,[1]; second series,0.94
same,normalized signal at concentration 0.00457247,[1]; second series,1.11
same,normalized signal at concentration 0.0137174,[1]; second series,1.12
same,normalized signal at concentration 0.0411523,[1]; second series,1.00
same,normalized signal at concentration 0.123457,[1]; second series,1.11
same,normalized signal at concentration 0.37037,[1]; second series,0.98
same,normalized signal at concentration 1.11111,[1]; second series,0.83
same,normalized signal at concentration 3.33333,[1]; second series,0.97
same,PbLuc_max_inhibition (%),[1],40%
